These molecules were tested on Hepatitis C virus (assay: microbe, parasite or virus in culture). Conditions: Hepatitis C virus, genotype 1b, Huh-luc/neo-ET, 72 h.
Format: functional, organism-based, Hepacivirus hominis, genotype 1b, Huh-luc/neo-ET
Description: Antiviral activity against HCV-1b infected human Huh-luc/neo-ET replicon cells after 72 hrs by luciferase based replicon assay

Row | EC50 | Structure (SMILES)
1 | 0.24 µM | Cc1ccc(CN2C(=O)C(C3=NS(=O)(=O)c4cc(NS(C)(=O)=O)ccc4N3)=C(O)[C@@H]3C4CCC(CC4)[C@@H]32)cc1F
2 | 0.22 µM | CS(=O)(=O)Nc1ccc2c(c1)S(=O)(=O)N=C(C1=C(O)[C@@H]3C4CCC(CC4)[C@@H]3N(Cc3cc(F)ccc3F)C1=O)N2
3 | 0.39 µM | CS(=O)(=O)Nc1ccc2c(c1)S(=O)(=O)N=C(C1=C(O)[C@@H]3C4CCC(CC4)[C@@H]3N(Cc3cccc(C(F)(F)F)c3)C1=O)N2
4 | 1.1 µM | CS(=O)(=O)Nc1ccc2c(c1)S(=O)(=O)N=C(C1=C(O)[C@@H]3C4CCC(CC4)[C@@H]3N(Cc3ccc(C(F)(F)F)cc3)C1=O)N2
5 | 1.7 µM | Cc1ccc(CN2C(=O)C(C3=NS(=O)(=O)c4cc(NS(C)(=O)=O)ccc4N3)=C(O)[C@@H]3[C@@H]4CC[C@@H](C4)[C@@H]32)cc1F
6 | 0.1 µM | CS(=O)(=O)Nc1ccc2c(c1)S(=O)(=O)N=C(C1=C(O)[C@@H]3[C@@H]4CC[C@@H](C4)[C@@H]3N(Cc3cccc(F)c3F)C1=O)N2
7 | 0.14 µM | CS(=O)(=O)Nc1ccc2c(c1)S(=O)(=O)N=C(C1=C(O)[C@@H]3[C@@H]4CC[C@@H](C4)[C@@H]3N(Cc3ccc(F)cc3Cl)C1=O)N2
8 | 0.3 µM | CS(=O)(=O)Nc1ccc2c(c1)S(=O)(=O)N=C(C1=C(O)[C@@H]3[C@@H]4CC[C@@H](C4)[C@@H]3N(Cc3cc(Cl)ccc3F)C1=O)N2
9 | 0.26 µM | CS(=O)(=O)Nc1ccc2c(c1)S(=O)(=O)N=C(C1=C(O)[C@@H]3[C@@H]4CC[C@@H](C4)[C@@H]3N(Cc3cc(F)ccc3F)C1=O)N2
10 | 0.94 µM | CS(=O)(=O)Nc1ccc2c(c1)S(=O)(=O)N=C(C1=C(O)[C@@H]3[C@@H]4CC[C@@H](C4)[C@@H]3N(Cc3cccc(C(F)(F)F)c3)C1=O)N2
11 | > 3.3 µM | CS(=O)(=O)Nc1ccc2c(c1)S(=O)(=O)N=C(C1=C(O)[C@@H]3[C@@H]4CC[C@@H](C4)[C@@H]3N(Cc3ccc(C(F)(F)F)cc3)C1=O)N2
12 | 0.13 µM | CS(=O)(=O)Nc1ccc2c(c1)S(=O)(=O)N=C(C1=C(O)[C@@H]3[C@@H]4CC[C@@H](C4)[C@@H]3N(Cc3ccccc3Cl)C1=O)N2
13 | 0.13 µM | CS(=O)(=O)Nc1ccc2c(c1)S(=O)(=O)N=C(C1=C(O)[C@@H]3[C@H]4CC[C@H](C4)[C@@H]3N(Cc3cccc(F)c3F)C1=O)N2
14 | 0.25 µM | CS(=O)(=O)Nc1ccc2c(c1)S(=O)(=O)N=C(C1=C(O)[C@@H]3[C@H]4CC[C@H](C4)[C@@H]3N(Cc3cc(Cl)ccc3F)C1=O)N2
15 | 0.26 µM | CS(=O)(=O)Nc1ccc2c(c1)S(=O)(=O)N=C(C1=C(O)[C@@H]3[C@H]4CC[C@H](C4)[C@@H]3N(Cc3cc(F)ccc3F)C1=O)N2
16 | 0.82 µM | CS(=O)(=O)Nc1ccc2c(c1)S(=O)(=O)N=C(C1=C(O)[C@@H]3[C@H]4CC[C@H](C4)[C@@H]3N(Cc3cccc(C(F)(F)F)c3)C1=O)N2
17 | > 3.3 µM | CS(=O)(=O)Nc1ccc2c(c1)S(=O)(=O)N=C(C1=C(O)[C@@H]3[C@H]4CC[C@H](C4)[C@@H]3N(Cc3ccc(C(F)(F)F)cc3)C1=O)N2
18 | 0.25 µM | CS(=O)(=O)Nc1ccc2c(c1)S(=O)(=O)N=C(C1=C(O)[C@@H]3[C@H]4CC[C@H](C4)[C@@H]3N(Cc3ccco3)C1=O)N2
19 | 3.3 µM | CS(=O)(=O)Nc1ccc2c(c1)S(=O)(=O)N=C(C1=C(O)[C@@H]3C4CCC(CC4)[C@@H]3N(Cc3nccs3)C1=O)N2
20 | > 1 µM | CS(=O)(=O)Nc1ccc2c(c1)S(=O)(=O)N=C(C1=C(O)[C@@H]3[C@H]4CC[C@H](C4)[C@@H]3N(Cc3nccs3)C1=O)N2
21 | > 1 µM | CS(=O)(=O)Nc1ccc2c(c1)S(=O)(=O)N=C(C1=C(O)[C@@H]3[C@@H]4CC[C@@H](C4)[C@@H]3N(Cc3nccs3)C1=O)N2
22 | 0.17 µM | CS(=O)(=O)Nc1ccc2c(c1)S(=O)(=O)N=C(C1=C(O)[C@@H]3[C@@H]4CC[C@@H](C4)[C@@H]3N(Cc3ccco3)C1=O)N2

From ChEMBL document CHEMBL1154345, “Discovery of tricyclic 5,6-dihydro-1H-pyridin-2-ones as novel, potent, and orally bioavailable inhibitors of HCV NS5B polymerase” (Bioorg Med Chem Lett, 2009)
